# Numbered stars: 1 amine (or outer) side, 2 acyl side, 3 side chain; on linkers, the order of the positions; unused ones are H or OH. Bridge positions count the residues as written; N and C are the ends. Square brackets hold non-standard residues; d marks the D form. Peptide text beside a SMILES is read from it. X6 = O=C(O)CC[C@H](CC(=O)[C@H](Cc1cnc[nH]1)N[*:1])C(=O)[*:2]; X4 = NC(=O)C[C@H](N[*:1])C(=O)C1CCC[C@H]1C(=O)[*:2]; X5 = CCCC[C@@H](C(=O)[*:2])N(CC)[*:1]; X7 = COCCN([C@@H](C)C(=O)[*:2])[*:1]; X2 = C[C@@H](C(=O)[*:2])N(CCN)[*:1]; NBnAla = C[C@H](NCc1ccccc1)C(=O)O; Hyp = O=C(O)[C@@H]1C[C@@H](O)CN1; Gly(N-CH2CH2OH) = O=C(O)CNCCO; NMeNle = CCCC[C@H](NC)C(=O)O; NEtAla = CCN[C@@H](C)C(=O)O; NMeA = CN[C@@H](C)C(=O)O; Dab = NCC[C@H](N)C(=O)O
# Target: T1, PD-1-Ig binding to PD-L1-TVMV-His (PD-L1-His) (Homo sapiens, UniProt Q9NZQ7)
# T1 construct: hPDL1(19-239)-TVMV-His; made in house; host or cells: HEK293T
# Assay: PD-1/PD-L1 Homogenous Time-Resolved Fluorescence (HTRF) binding assay
# Details: range class; PD-L1-His 10 nM, PD-1-Ig 20 nM
# Text: Methods for Testing the Ability of Macrocyclic Peptides to Compete for the Binding of Pd-1 to Pd-L1 Using Homogenous Time-Resolved Fluorescence (HTRF) Binding Assays
# The ability of the macrocyclic peptides of the present disclosure to bind to PD-L1 was investigated using a PD-1/PD-L1 Homogenous Time-Resolved Fluorescence (HTRF) binding assay.
# Homogenous Time-Resolved Fluorescence (HTRF) Assays of Binding of Soluble PD-1 to Soluble PD-L1. Soluble PD-1 and soluble PD-L1 refers to proteins with carboxyl-end truncations that remove the transmembrane-spanning regions and are fused to heterologous sequences, specifically the Fc portion of the human immunoglobuling G sequence (Ig) or the hexahistidine epitope tag (His). All binding studies were performed in an HTRF assay buffer consisting of dPBS supplemented with 0.1% (w/v) bovine serum albumin and 0.05% (v/v) Tween-20. For the PD-1-Ig/PD-L1-His binding assay, inhibitors were pre-incubated with PD-L1-His (10 nM final) for 15 m in 4 μl of assay buffer, followed by addition of PD-1-Ig (20 nM final) in 1 μl of assay buffer and further incubation for 15 m. PD-L1 fusion proteins from either human, cynomologous macaques, mouse, or other species were used. HTRF detection was achieved using europium crypate-labeled anti-Ig monoclonal antibody (1 nM final) and allophycocyanin (APC) labeled anti-His monoclonal antibody (20 nM final). Antibodies were diluted in HTRF detection buffer and 5 μl was dispensed on top of binding reaction. The reaction was allowed to equilibrate for 30 minutes and signal (665 nm/620 nm ratio) was obtained using an EnVision fluorometer. Additional binding assays were established between PD-1-Ig/PD-L2-His (20 and 5 nM, respectively), CD80-His/PD-L1-Ig (100 and 10 nM, respectively) and CD80-His/CTLA4-Ig (10 and 5 nM, respectively). Binding/competition studies between biotinylated Compound No. 71 and human PD-L1-His were performed as follows. Macrocyclic peptide inhibitors were pre-incubated with PD-L1-His (10 nM final) for 60 minutes in 4 μl of assay buffer followed by addition of biotinylated Compound No. 71 (0.5 nM final) in 1 μl of assay buffer. Binding was allowed to equilibrate for 30 minutes followed by addition of europium crypated labeled Streptavidin (2.5 pM final) and APC-labeled anti-His (20 nM final) in 5 μl of HTRF buffer. The reaction was allowed to equilibrate for 30 m and signal (665 nm/620 nm ratio) was obtained using an EnVision fluorometer.
# Recombinant Proteins. Carboxyl-truncated human PD-1 (amino acids 25-167) with a C-terminal human Ig epitope tag [hPD-1 (25-167)-3S-IG] and human PD-L1 (amino acids 18-239) with a C-terminal His epitope tag [hPD-L1(19-239)-tobacco vein mottling virus protease cleavage site (TVMV)-His] were expressed in HEK293T cells and purified sequentially by recombinant Protein A affinity chromatography and size exclusion chromatography. Human PD-L2-His (Sino Biologicals), CD80-His (Sino Biologicals), CTLA4-Ig (RnD Systems) were all obtained through commercial sources.
# Ranges are as follows: A=0.10-10 μM; B=0.01-0.099 μM; C=0.005-0.0099 μM.
# T1 sequence (Q9NZQ7 with tags, fused parts or gaps): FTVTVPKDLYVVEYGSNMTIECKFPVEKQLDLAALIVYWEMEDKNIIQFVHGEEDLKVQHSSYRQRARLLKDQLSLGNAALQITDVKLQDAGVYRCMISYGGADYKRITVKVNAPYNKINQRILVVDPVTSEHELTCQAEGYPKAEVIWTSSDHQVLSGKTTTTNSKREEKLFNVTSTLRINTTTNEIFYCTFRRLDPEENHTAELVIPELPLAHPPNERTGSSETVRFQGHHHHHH
row,SMILES,IC50
1,CCCC[C@H]1C(=O)N(C)[C@@H](CCCC)C(=O)N[C@@H](CC(C)C)C(=O)N[C@H](C(=O)NCC(N)=O)CSCC(=O)N[C@@H](Cc2ccc(O)cc2)C(=O)N(C)[C@@H](C)C(=O)N[C@@H](CC(N)=O)C(=O)N(CC(=O)O)CC(=O)N[C@@H](Cc2cnc[nH]2)C(=O)N[C@@H](CCC(=O)O)C(=O)N2C[C@H](O)C[C@H]2C(=O)N[C@@H](Cc2c[nH]c3ccccc23)C(=O)N[C@@H](CCN)C(=O)N[C@@H](Cc2c[nH]c3ccccc23)C(=O)N1C [Example 3015],10 to 99 nM
2,CCCC[C@H]1C(=O)N(C)[C@@H](CCCC)C(=O)N[C@@H](CC(C)C)C(=O)N[C@H](C(=O)NCC(N)=O)CSCC(=O)N[C@@H](Cc2ccc(O)cc2)C(=O)N(C)[C@@H](C)C(=O)N[C@@H](CC(N)=O)C(=O)N(CCO)CC(=O)N[C@@H](Cc2cnc[nH]2)C(=O)N[C@@H](CCC(=O)O)C(=O)N2C[C@H](O)C[C@H]2C(=O)N[C@@H](Cc2c[nH]c3ccccc23)C(=O)N[C@@H](CCN)C(=O)N[C@@H](Cc2c[nH]c3ccccc23)C(=O)N1C [Example 3016] ({CH2CO}-Y[NMeA]N[Gly(N-CH2CH2OH)]HE[Hyp]W[Dab]W[NMeNle][NMeNle]LCG-NH2; thioether N-14),10 to 99 nM
3,CCCC[C@H]1C(=O)N(C)[C@@H](CCCC)C(=O)N[C@@H](CC(C)C)C(=O)N[C@H](C(=O)NCC(N)=O)CSCC(=O)N[C@@H](Cc2ccc(O)cc2)C(=O)N(CC)[C@@H](C)C(=O)N[C@@H](CC(N)=O)C(=O)N2CCC[C@H]2C(=O)N[C@@H](Cc2cnc[nH]2)C(=O)C[C@@H](CCC(=O)O)C(=O)N2C[C@H](O)C[C@H]2C(=O)N[C@@H](Cc2c[nH]c3ccccc23)C(=O)N[C@@H](CCN)C(=O)N[C@@H](Cc2c[nH]c3ccccc23)C(=O)N1C [Example 3017] ({CH2CO}-Y[NEtAla]NP[X6][Hyp]W[Dab]W[NMeNle][NMeNle]LCG-NH2; thioether N-13),5 to 9.9 nM
4,CCCC[C@H]1C(=O)N(C)[C@@H](CCCC)C(=O)N[C@@H](CC(C)C)C(=O)N[C@H](C(=O)NCC(N)=O)CSCC(=O)N[C@@H](Cc2ccc(O)cc2)C(=O)N(Cc2ccccc2)[C@@H](C)C(=O)N[C@@H](CC(N)=O)C(=O)N2CCC[C@H]2C(=O)N[C@@H](Cc2cnc[nH]2)C(=O)N[C@@H](CCC(=O)O)C(=O)N2C[C@H](O)C[C@H]2C(=O)N[C@@H](Cc2c[nH]c3ccccc23)C(=O)N[C@@H](CCN)C(=O)N[C@@H](Cc2c[nH]c3ccccc23)C(=O)N1C [Example 3019] ({CH2CO}-Y[NBnAla]NPHE[Hyp]W[Dab]W[NMeNle][NMeNle]LCG-NH2; thioether N-14),10 to 99 nM
5,CCCC[C@H]1C(=O)N(CC)[C@@H](C)C(=O)N[C@@H](CC(C)C)C(=O)N[C@H](C(=O)NCC(N)=O)CSCC(=O)N[C@@H](Cc2ccc(O)cc2)C(=O)N(C)[C@@H](C)C(=O)N[C@@H](CC(N)=O)C(=O)C2CCC[C@H]2C(=O)N[C@@H](Cc2cnc[nH]2)C(=O)N[C@@H](CCC(=O)O)C(=O)N2C[C@H](O)C[C@H]2C(=O)N[C@@H](Cc2c[nH]c3ccccc23)C(=O)N[C@@H](CCN)C(=O)N[C@@H](Cc2c[nH]c3ccccc23)C(=O)N1C (stereo partly drawn) [Example 3020] ({CH2CO}-Y[NMeA][X4]HE[Hyp]W[Dab]W[NMeNle][NEtAla]LCG-NH2; thioether N-13),5 to 9.9 nM
6,CCCC[C@H]1C(=O)N[C@@H](CC(C)C)C(=O)N[C@H](C(=O)NCC(N)=O)CSCC(=O)N[C@@H](Cc2ccc(O)cc2)C(=O)N(C)[C@@H](C)C(=O)N[C@@H](CC(N)=O)C(=O)N2CCC[C@H]2C(=O)N[C@@H](Cc2cnc[nH]2)C(=O)N[C@@H](CCC(=O)O)C(=O)N2C[C@H](O)C[C@H]2C(=O)N[C@@H](Cc2c[nH]c3ccccc23)C(=O)N[C@@H](CCN)C(=O)N[C@@H](Cc2c[nH]c3ccccc23)C(=O)N(CCN)[C@@H](C)C(=O)N1C [Example 3022] ({CH2CO}-Y[NMeA]NPHE[Hyp]W[Dab]W[X2][NMeNle]LCG-NH2; thioether N-14),10 to 99 nM
7,CCCC[C@H]1C(=O)N[C@@H](CC(C)C)C(=O)N[C@H](C(=O)NCC(N)=O)CSCC(=O)N[C@@H](Cc2ccc(O)cc2)C(=O)N(C)[C@@H](C)C(=O)N[C@@H](CC(N)=O)C(=O)N2CCC[C@H]2C(=O)N[C@@H](Cc2cnc[nH]2)C(=O)N[C@@H](CCC(=O)O)C(=O)N2C[C@H](O)C[C@H]2C(=O)N[C@@H](Cc2c[nH]c3ccccc23)C(=O)N[C@@H](CCN)C(=O)N[C@@H](Cc2c[nH]c3ccccc23)C(=O)N(CC)[C@@H](C)C(=O)N1C [Example 3024] ({CH2CO}-Y[NMeA]NPHE[Hyp]W[Dab]W[NEtAla][NMeNle]LCG-NH2; thioether N-14),10 to 99 nM
8,CCCC[C@H]1C(=O)N[C@@H](CC(C)C)C(=O)N[C@H](C(=O)NCC(N)=O)CSCC(=O)N[C@@H](Cc2ccc(O)cc2)C(=O)N(C)[C@@H](C)C(=O)N[C@@H](CC(N)=O)C(=O)N2CCC[C@H]2C(=O)N[C@@H](Cc2cnc[nH]2)C(=O)N[C@@H](CCC(=O)O)C(=O)N2C[C@H](O)C[C@H]2C(=O)N[C@@H](Cc2c[nH]c3ccccc23)C(=O)N[C@@H](CCN)C(=O)N[C@@H](Cc2c[nH]c3ccccc23)C(=O)N(CC(=O)O)[C@@H](C)C(=O)N1C [Example 3028],100 to 10000 nM

# Continued, values first:
row,IC50,SMILES
1,5 to 9.9 nM,CCCC[C@H]1C(=O)N(CC)[C@@H](CCCC)C(=O)N[C@@H](CC(C)C)C(=O)N[C@H](C(=O)NCC(N)=O)CSCC(=O)N[C@@H](Cc2ccc(O)cc2)C(=O)N(C)[C@@H](C)C(=O)N[C@@H](CC(N)=O)C(=O)N2CCC[C@H]2C(=O)N[C@@H](Cc2cnc[nH]2)C(=O)N[C@@H](CCC(=O)O)C(=O)N2C[C@H](O)C[C@H]2C(=O)N[C@@H](Cc2c[nH]c3ccccc23)C(=O)N[C@@H](CCN)C(=O)N[C@@H](Cc2c[nH]c3ccccc23)C(=O)N1C [Example 3021] ({CH2CO}-Y[NMeA]NPHE[Hyp]W[Dab]W[NMeNle][X5]LCG-NH2; thioether N-14)
2,10 to 99 nM,CCCC[C@H]1C(=O)N[C@@H](CC(C)C)C(=O)N[C@H](C(=O)NCC(N)=O)CSCC(=O)N[C@@H](Cc2ccc(O)cc2)C(=O)N(C)[C@@H](C)C(=O)N[C@@H](CC(N)=O)C(=O)N2CCC[C@H]2C(=O)N[C@@H](Cc2cnc[nH]2)C(=O)N[C@@H](CCC(=O)O)C(=O)N2C[C@H](O)C[C@H]2C(=O)N[C@@H](Cc2c[nH]c3ccccc23)C(=O)N[C@@H](CCN)C(=O)N[C@@H](Cc2c[nH]c3ccccc23)C(=O)N(CC)[C@@H](CCCC)C(=O)N1C [Example 3023] ({CH2CO}-Y[NMeA]NPHE[Hyp]W[Dab]W[X5][NMeNle]LCG-NH2; thioether N-14)
3,10 to 99 nM,CCCC[C@H]1C(=O)N[C@@H](CC(C)C)C(=O)N[C@H](C(=O)NCC(N)=O)CSCC(=O)N[C@@H](Cc2ccc(O)cc2)C(=O)N(C)[C@@H](C)C(=O)N[C@@H](CC(N)=O)C(=O)N2CCC[C@H]2C(=O)N[C@@H](Cc2cnc[nH]2)C(=O)N[C@@H](CCC(=O)O)C(=O)N2C[C@H](O)C[C@H]2C(=O)N[C@@H](Cc2c[nH]c3ccccc23)C(=O)N[C@@H](CCN)C(=O)N[C@@H](Cc2c[nH]c3ccccc23)C(=O)N(CCOC)[C@@H](C)C(=O)N1C [Example 3025] ({CH2CO}-Y[NMeA]NPHE[Hyp]W[Dab]W[X7][NMeNle]LCG-NH2; thioether N-14)
4,10 to 99 nM,CCCC[C@H]1C(=O)N(C)[C@@H](CCCC)C(=O)N[C@@H](CC(C)C)C(=O)N[C@H](C(=O)NCC(N)=O)CSCC(=O)N[C@@H](Cc2ccc(O)cc2)C(=O)N(CCOC)[C@@H](C)C(=O)N[C@@H](CC(N)=O)C(=O)N2CCC[C@H]2C(=O)N[C@@H](Cc2cnc[nH]2)C(=O)N[C@@H](CCC(=O)O)C(=O)N2C[C@H](O)C[C@H]2C(=O)N[C@@H](Cc2c[nH]c3ccccc23)C(=O)N[C@@H](CCN)C(=O)N[C@@H](Cc2c[nH]c3ccccc23)C(=O)N1C [Example 3026] ({CH2CO}-Y[X7]NPHE[Hyp]W[Dab]W[NMeNle][NMeNle]LCG-NH2; thioether N-14)

# — patent US9861680B2, “Immunomodulators” (BRISTOL-MYERS SQUIBB COMPANY, priority 2014, dated 2018)
